Measurements: the supplement of paper PMC4954754
± gives the uncertainty stated by the source.

Assays:
Conditions in all cases: 18 h
HEK293T-Rex ERSE-FLuc [1] = test: EC50 for ERSE-FLuc reporter activation
Procedure: (§1)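 Dose-response of hit compounds in HEK293T-Rex cells stably expressing ERSE-FLuc or XBP1-RLuc reporters, 18 hr treatment, 1536-well; luminescence normalised to 500 nM thapsigargin (100%) and DMSO (0%), fitted to give EC50 (M) and maximal activation; '>' marks EC50 above the top tested dose (~17 µM).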

HEK293T-Rex XBP1-RLuc [2] = test: EC50 for XBP1-RLuc reporter activation
Procedure: as §1

HEK293T-Rex ERSE-FLuc [3] = test: maximal ERSE-FLuc activation from dose-response fit, relative to thapsigargin (% of thapsigargin); higher = stronger activation
Procedure: as §1

HEK293T-Rex XBP1-RLuc [4] = test: maximal XBP1-RLuc activation from dose-response fit, relative to thapsigargin (% of thapsigargin); higher = stronger activation
Procedure: as §1

Structure (SMILES)	EC50 for ERSE-FLuc reporter activation (HEK293T-Rex ERSE-FLuc [1]) [µM]	EC50 for XBP1-RLuc reporter activation (HEK293T-Rex XBP1-RLuc [2]) [µM]	maximal ERSE-FLuc activation (HEK293T-Rex ERSE-FLuc [3])	maximal XBP1-RLuc activation (HEK293T-Rex XBP1-RLuc [4])
N#Cc1c(NC(=O)/C=C/c2ccco2)sc2c1CCCC2	> 17	> 17	22.8 ± 6.6	5.59 ± 3
Cc1ccc(O)c(NC(=O)CSc2ccccc2)c1	3.9	> 16.9	83.1 ± 25	21.2 ± 3.5
COc1ccc(-n2nnnc2SCC(N)=O)c(OC)c1	> 16.9	> 16.9	11.9 ± 3.1	1.34 ± 2.6
Oc1ccc(/C=N/Nc2cccc3cccnc23)c(O)c1	> 16.9	9.41	36.6 ± 4.9	53.6 ± 5.7
COc1ccc(/C=C2\SC(=O)NC2=Nc2ccc(C)cc2)c(OC)c1	> 13	> 13	18.2 ± 3.2	3.27 ± 1.6
Nc1nc(Nc2ccc(Cl)cc2)nc2ccccc12	9.57	8.74	103 ± 24	56.4 ± 4.6
O=C(/C=C/c1ccco1)Nc1ccccn1	> 16.9	> 16.9	18.7 ± 4.8	1.83 ± 1.4
CN(C)c1ccc(/C=C/C(=O)NC(=O)c2ccccc2OC(=O)c2ccccc2)cc1	> 12.9	> 12.9	25 ± 1.2	11.5 ± 1.4
Cc1ccc(O)c(NC(=S)NC(=O)/C=C/c2ccco2)c1	> 16.9	> 16.9	30.2 ± 7.3	5.76 ± 1.5
COc1ccc(NC(=O)/C(Cl)=C\c2ccccc2)cc1	> 16.9	> 16.9	22.2 ± 2.3	4.41 ± 5
COc1ccc2c(Cl)c(C(=O)Nc3ccccc3C(N)=O)sc2c1	> 16.9	> 16.9	21.3 ± 1.3	6.81 ± 1.3
Oc1ccc(-c2cn3ccccc3n2)cc1O	18.4	> 22.5	51.7 ± 5.5	38.7 ± 3.2
CCCCCOc1ccc(N/C(N)=N/c2nc(C)cc(C)n2)cc1	10.4	4.05	68 ± 8.8	152 ± 12
CC(Oc1ccc(Cl)cc1Cl)C(=O)NNC(=O)c1ccc(O)c(O)c1 (stereo not drawn)	> 14.9	> 14.9	50 ± 8.3	45.2 ± 5.7
CCCCNNC(=O)c1ccc(Br)cc1	4.91	> 17.4	95.4 ± 25	8.05 ± 3.5
O=C(CCCN1CCC2(CC1)C(=O)NCN2c1ccccc1)c1ccc(F)cc1	7.34	3.23	157 ± 16	186 ± 12
C(=N/Nc1nnc2c(n1)[nH]c1ccccc12)/c1c[nH]c2ccccc12	> 16.9	> 16.9	43.9 ± 1.3	26 ± 1.9
Nc1ccccc1NC(=O)c1ccc(C(=O)Nc2ccccc2N)cc1	7.17	> 9.59	65.8 ± 3.4	16.1 ± 6.4
CCOc1ccc2nc(NC(=O)c3ccn(C)n3)sc2c1	> 14.4	> 14.4	10.9 ± 2.4	4.53 ± 2.8
CC1(C)Cc2ccccc2/C(=C/C(=O)C(=O)N/N=C/c2ccc(O)c(O)c2)N1	> 16.9	6.13	39 ± 3.2	54.9 ± 3.4
Cc1nc(-c2coc3c(O)c(O)ccc3c2=O)cs1	> 16.9	> 16.9	35.2 ± 6.9	20.6 ± 1
CCCNc1ccnc(N2CCc3ccccc3C2)n1	> 17.7	> 17.7	12 ± 7.5	1.68 ± 0.28
